Values after ≈ are worked out from the molar mass of the structure shown. Where two headings read alike, the source gives them in different places. No end group written: not given here.

Data set [1] is described as follows: Cryopreserved hepatocyte stability, human. The class given is in vitro ADME. Particulars: cryopreserved hepatocytes, read-out: CLint hHep. On the procedure:
(§1) Cryopreserved hepatocyte stability
(§2) Tested compounds (1 μM) were incubated with human cryopreserved hepatocytes (pool of 5) (IVT Celsis) and mouse cryopreserved hepatocytes (IVT Celsis). Hepatocytes (1, 0.5 or 0.25 x10^6 cells/mL, Williams’ Medium E (WME) with 4 mM L-glutamine and 2 mM magnesium sulphate) containing tested compound (final substrate concentration 1 μM; final DMSO concentration 0.25 %) were preincubated at 37 °C. The final incubation volume was 500 μl. 3 species-specific control compounds were included with each species. At 7 time points (0, 10, 20, 40, 60, 90, and 120 min), reactions were stopped by transferring 50 μl of the incubation mixture into 0.5 μM carbamazepine in cold acetonitrile. Tested compound concentrations were analyzed by LC-MS/MS and the resulting data were used to determine the half-life and intrinsic clearance of the compound in each species. […]

The nature of data set [2]: Cryopreserved hepatocyte stability, mouse. The class given is in vitro ADME. Particulars: cryopreserved hepatocytes, murine hepatocytes, read-out: CLint mHep. As for the experimental part:
as §1, §2

The nature of data set [3]: PK parameters in mice. The class given is in vivo, male Swiss (CD-1) mice. Conditions: male, Swiss (CD-1), plasma, mouse. As for the experimental part: PK parameters and tissue distribution in mice
The pharmacokinetic profiles of the tested compounds were evaluated in male Swiss (CD-1) mice around 5-6 weeks old (3 animals per sampling time). […]
0.2 % Tween 80 in water. Blood samples were collected (0.25 mL) from the sinus retro-orbital […]
24 hr for p.o. route. The blood samples were immediately centrifuged at 2500 rpm at +4 °C, and the plasma was stored at −80 °C. 50 μL of plasma sample was taken and 150 μL of acetonitrile was added. After protein precipitation, analysis of the molecule was performed using LC-MS/MS to determine plasma compound concentration. For liver and lung collection, 3 animals per group were involved and sampled after 2 hr and 24 hr upon 20 mg/kg p.o. administration. Animals were perfused with around 10 mL of saline solution directly into the heart to extract the maximal blood sample from the liver and the lung. Animals were then sacrificed by cervical dislocation and liver

Data set [4] is described as follows: Microsomal stability, mouse liver microsomes. The class given is in vitro ADME. Particulars: male, CD-1, mouse, pH 7.4; murine liver microsomes; read-out: CLint mLM. On the procedure: (§3) Tested compounds (1 μM) were incubated with pooled human liver microsomes (Xenotech; pooled male and female) and pooled mouse liver microsomes (Xenotech; male CD-1 mice).
(§4) Microsomes (final protein concentrations of 0.25 and 0.5 mg/ml, 0.1 M phosphate buffer pH 7.4) containing tested compound (final substrate concentration 1 μM; final DMSO concentration 0.25 %) were preincubated at 37 °C prior to the addition of NADPH (final concentration 1 mM) to initiate the reaction. The final incubation volume was 200 μl. 3 species-specific control compounds were included with each species. At 5 time points (0, 5, 10, 20, and 40 min), reactions were stopped by transferring 50 μl of the incubation mixture into 0.5 μM carbamazepine in acetonitrile. Tested compound concentrations were analyzed by LC-MS/MS and the resulting data were used to determine the half-life and intrinsic clearance of the compound in each
(Microsomes from liver hold many membrane-bound enzymes, among them those of drug oxidation.)

A short description of data set [5]: Plasma protein binding by equilibrium dialysis, murine. The class given is in vitro ADME. Particulars: mouse, read-out: PPB (% bound). On the procedure: The free and bound fractions of the tested compounds in mouse and human plasma were determined by equilibrium dialysis using a 96-well Teflon dialysis unit (HTDialysis plate complete unit, HT Dialysis, USA). The HTDialysis plate complete unit consists of a 96-well plate with wells vertically bisected by a semipermeable membrane (membranes strips 12 to 14 kDa) creating two chambers. A 125 μL aliquot of plasma containing tested compound at 10 μM was placed on one side and 125 μL of Dulbecco‘s phosphate buffered saline (D-PBS) on the other. The plate was incubated at 37 °C for 6 hr under gentle agitation. Then, samples from both plasma and buffer compartment were analyzed by a LC-MS/MS method to measure the free fraction and the bound fraction to the plasma proteins. […]

In data set [6] the test system is influenza A H1N1 virus. Nature of the data set: microbe, parasite or virus in culture.
Data set [7] can be described thus: Kinetic solubility. The class given is physicochemical. Conditions: PBS pH 7.4 buffer, pH 7.4, aqueous buffer, kinetic from dmso stock. As for the experimental part: 10 mM DMSO Stock solutions of tested compounds were distributed into filtration plate (Multiscreen Durapore 0.45µm) containing PBS pH 7.4 buffer to a final maximum concentration of 130 μM (1.3 % DMSO/buffer). Solutions or suspensions were shaken for 30 min at room temperature. The samples were filtered under vacuum into a collection plate and diluted 50 % with ACN for UV analysis. Quantification was performed against a Reference plate containing the same tested compounds fully solubilized in ACN/PBS buffer 1:1. Reference and Sample plates were analyzed by UPLC/UV-MS using a generic UPLC method. […]

Data set [8] in a line: Microsomal stability, human liver microsomes. Conditions: both sexes, pH 7.4, read-out: CLint hLM. The class given is in vitro ADME. As for the experimental part:
as §3, §4

Data set [9] concerns Dengue virus. Conditions: in vitro; cited from earlier work.
In data set [10] the test system is F. novicida (strain U112). The class given is cell-based. Particulars: normalized area under the curve.
Assay in data set [11]: not given
The source holds these as a separate data set.

Data set [12] has as its target T1, MiNT (Homo sapiens, UniProt P0C7P0).
T1 construct: made in house; host or cells: E. coli
T1 sequence (P0C7P0 15-127): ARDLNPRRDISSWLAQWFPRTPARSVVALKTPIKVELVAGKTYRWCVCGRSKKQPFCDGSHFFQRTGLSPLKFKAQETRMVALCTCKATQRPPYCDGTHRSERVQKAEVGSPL
Nature of the data set: In vitro NEET [2Fe-2S] cluster release, MiNT. The class given is biochemical. Particulars: recombinant MiNT, 37 °C, absorbance 460 nm. On the procedure: (§5) MitoNEET ([60]) and NAF-1 ([61]) cytosolic domains and MiNT ([62]) were purified from E. coli as previously published. Experiments were performed in 96-well plates at 37 °C with […] of Fe-S cluster in a buffer composed of 50 mM Tris-HCl pH 7 and 100 mM NaCl. dEF3122 was dissolved in dimethyl sulfoxide (DMSO) at 10 mM. CPEP31 was dissolved in PBS at 10 mM. After 20 min of incubation of the protein with the molecule, NEET cluster release was followed by measuring the absorbance at 460 and 800 nm over time using a plate reader (SpectraMax ID3). The absorbance at 460 nm was corrected for the variation of the baseline (absorbance at 800 nm) over time and normalized at 1 at the beginning of the kinetics.

Data set [13] has as its system HIV1 strain NL4-3. The class given is cell-based. Particulars: normalized mean of HIV1 replication readout.
Data set [14] concerns the target T2, MitoNEET (Homo sapiens, UniProt Q9NZ45).
T2 construct: MitoNEET ([60]) and NAF-1 ([61]) cytosolic domains and MiNT ([62]) were purified from E. coli as previously published; made in house; host or cells: E. coli
T2 sequence (Q9NZ45 32-108 limits assumed): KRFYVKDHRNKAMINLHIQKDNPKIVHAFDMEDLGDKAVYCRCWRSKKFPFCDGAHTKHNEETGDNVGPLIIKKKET
Nature of the data set: In vitro NEET [2Fe-2S] cluster release, MitoNEET. The class given is biochemical. Conditions: recombinant MitoNEET, 37 °C, absorbance 460 nm. On the procedure: as §5

Data set [15] concerns influenza A H1N1 virus. Conditions: 48 hr post-treatment, A549.
The subject of data set [16] is HCV replicon. The class given is cell-based. Conditions: normalized mean of HCV replicon readout. For orientation: Replicon systems follow genome replication, usually without infectious particles.
For data set [17], the target named is T3, NAF-1 (Homo sapiens, UniProt Q8N5K1).
T3 construct: MitoNEET ([60]) and NAF-1 ([61]) cytosolic domains and MiNT ([62]) were purified from E. coli as previously published; made in house; host or cells: E. coli
T3 sequence (Q8N5K1 61-135 limits assumed): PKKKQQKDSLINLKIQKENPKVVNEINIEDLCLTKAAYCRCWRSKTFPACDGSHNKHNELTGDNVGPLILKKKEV
In words: In vitro NEET [2Fe-2S] cluster release, NAF-1. The class given is biochemical. Particulars: recombinant NAF-1, 37 °C, absorbance 460 nm. On the procedure:
as §5

Data set [18] deals with EBV. Conditions: normalized mean of EBV replication readout.
[19] abbreviates: H1N1, A549, read-out: Neuraminidase activity assay IC50.
Where [20] appears, read: H1N1, A549, read-out: IC50 for the inhibition of influenza virus replication.

A word on the Cmax: it is the peak of the concentration-time curve. Usually bioavailability stands for the share of a dose that reaches the circulation, judged against a reference dose that is usually intravenous. As a reminder, the IC50 is the midpoint of a concentration-inhibition curve. One may read the solubility (kinetic) as the concentration staying in solution when a stock, usually in DMSO, is diluted into the medium. With `O=C(Nc1scc(C2CCc3ccccc3C2)c1C(=O)O)c1ccccc1` (racemic) [dEF2905], the hepatocyte CLint at 1 µM in data set [1] is 65 µL/min/1e6 cells; in data set [2] it was less than 5 µL/min/1e6 cells. Besides, the half-life in data set [3] (iv 0.25 mg/kg, read-out: T1/2 iv (converted)) was 3.8 h. In [3] (po 2 mg/kg (dose for AUC)), this compound showed a Cmax of 1140 ng/mL. Also, the bioavailability in [3] (po 2 mg/kg, iv 0.25 mg/kg) was 33%. Further, the microsomal CLint at 1 µM in [4] is 29 µL/min/mg. Also, in data set [5], the fraction unbound at 6 h, 10 µM worked out at 0.001. Also, the IC50 in data set [6] (setting [19]) came to 0.018 µM. Also, the kinetic solubility at 30 min in data set [7] came out at 48 µM (≈ 18.1 µg/mL).

For `O=C(Nc1ccc(Cl)cc1)c1c(NC(=O)C2CCCCC2C(=O)O)sc2c1CCC2` (stereo not shown) [dEF384], the half-life in [3] (iv 0.9 mg/kg, read-out: T1/2 iv (converted)) was 1.08 h; in data set [3] (po 10 mg/kg, read-out: T1/2 po (converted)), 1.74 h. For the same compound, the concentration in data set [3] (po 10 mg/kg) peaked (Cmax) at 31300 ng/mL. For the same compound, the bioavailability in data set [3] (po 10 mg/kg, iv 0.9 mg/kg) worked out at 71%. In addition, the microsomal CLint at 1 µM is less than 20 µL/min/mg in data set [4] and less than 14 µL/min/mg in [8]. The fraction unbound at 6 h, 10 µM in data set [5] is less than 0.01. Besides, the IC50 in [6] (setting [20]) was 5 µM. In addition, in data set [7], the solubility (kinetic) at 30 min stood at 74 µM (≈ 33.1 µg/mL).

Turning to `COc1ccc(C(=O)Nc2sc3c(c2C(=O)O)CCC(C(C)(C)C)C3)cc1` (stereo not shown) [dEF2665], the microsomal CLint at 1 µM in data set [4] worked out at 50 µL/min/mg; in [8], 38 µL/min/mg. For the same compound, the fraction unbound at 6 h, 10 µM in [5] came to 0.001. Besides, the IC50 in data set [6] (setting [20]) was determined as 0.15 µM. The compound also displayed a solubility (kinetic) at 30 min in [7] of less than 5 µM.

As for `COc1ccc(C(=O)Nc2sc3c(c2C(=O)O)CCC(C)(C)C3)cc1OC` [dEF2788], the hepatocyte CLint at 1 µM in data set [1] is 31 µL/min/1e6 cells; in data set [2], 116 µL/min/1e6 cells. Also, the half-life in data set [3] (iv 0.5 mg/kg, read-out: T1/2 iv (converted)) is 0.8 h. Besides, in data set [3] (po 5 mg/kg (dose for AUC)), the peak level (Cmax) was 71 ng/mL. Besides, in [3] (po 5 mg/kg, iv 0.5 mg/kg), the bioavailability is 26%. In addition, the microsomal CLint at 1 µM in [4] was 14 µL/min/mg; in data set [8], less than 14 µL/min/mg. The fraction unbound at 6 h, 10 µM in [5] is less than 0.01. Besides, the IC50 in data set [6] (setting [19]) worked out at 0.05 µM. The kinetic solubility at 30 min in data set [7] amounted to 104 µM (≈ 40.5 µg/mL). In data set [9], the “activity against Dengue virus replication” value is reported as “active in vitro against Dengue virus replication”.

EVVLFLLNVF [CPEP31] came in with a CC50 greater than 100 µM. Besides, the “Francisella novicida Norm AUC” value in data set [10] is reported as 0.6912. For the same compound, the selectivity ratio in data set [11] was greater than 12. Besides, in data set [12], the “interaction by [2Fe-2S] cluster release assay” value (“interaction” for short) is given as “Interactions were validated”. Further, the “HIV1 Norm MEAN” value in [13] is given as 8.9. Further, the “interaction” value in data set [14] is given as “Interactions were validated”. Also, the “Neuraminidase activity normalized to vehicle” value in data set [15] (200 µM peptide) was 0,0494. The “Neuraminidase activity normalized to vehicle” value in [15] (0,823 µM peptide) is on record as 0,7352. For the same compound, in [15] (22,2 µM peptide), the “Neuraminidase activity normalized to vehicle” value is recorded as 0,2851. Also, the “Neuraminidase activity normalized to vehicle” value in data set [15] (2,4691 µM peptide) was 0,951. In addition, the “Neuraminidase activity normalized to vehicle” value in data set [15] (7,4074 µM peptide) was 0,7335. In addition, the “Neuraminidase activity normalized to vehicle” value in data set [15] (66,6667 µM peptide) was 0,114. In addition, in data set [16], the “HCV Norm MEAN” value was 0.4448. Besides, in data set [17], the “interaction” value is recorded as “Interactions were validated”. Moreover, the “EBV Norm MEAN” value in data set [18] is recorded as 0.8028.
